In general, inhibition refers to the change of the read-out against control, counted positive when it falls. Lower therefore signals a weak effect.

The test system of the experiment is production of kynurenine in human gastric cancer cell line KATO-III. Nature of the experiment: Inhibitory activity on the production of kynurenine (IFN-γ-treated KATO-III cells). The experiment is classed as cell-based. The following applies: 10 μmol/L test compound, KATO-III cells treated with IFN-γ, 96 hours. Here is the method:
This assay was performed by a modification of the method described in J. Biol. Chem., vol. 263, pp. 2041-2048 ([…]). For culture of the human gastric cancer cell line […], RPMI 1640 (GIBCO, 11875) supplemented with 10 vol % FBS (GIBCO, 10091-148, lot. 665285) was used. One μL of a test substance in a DMSO solution was diluted with 199 μL of the culture medium and placed in wells of a 384-well plate (10 μL/well). Next, IFN-γ (Sigma, I-3265) was added to a fresh culture medium to a concentration of 31.25 ng/mL, and KATO-III cells were suspended at 50,000 cells/mL in the culture medium. Forty μL of the suspension was added to each well (2,000 cells/well) and cultured under 5% CO2 at 37° C. for 96 hours. The final concentration of DMSO was limited to 0.1 vol % or less so that DMSO itself may not affect the kynurenine concentration measured in this assay. After the culture, 10 μL of a 30 w/v % aqueous trichloroacetic acid solution was added to each well, and incubation was performed at 65° C. for 30 minutes. The plate was centrifruged at 2,500×g for 5 minutes and 15 μL of the supernatant in each well was transferred into another 384-well plate. To the transferred supernatant, 15 μL of a 2 w/v % solution of p-dimethylaminobenzaldehyde in acetic acid was added, incubation was performed at 65° C. for 20 minutes and the absorbance was measured at 480 nm.
Sample: the absorbance value of the well to which DMSO solution containing a test substance was added and in which the cells were treated with IFN-γ.
Blank: the absorbance value of the well to which DMSO not containing a test substance was added and in which the cells were treated with IFN-γ.
Control: the absorbance value of the well to which DMSO not containing a test substance was added and in which the cells were not treated with IFN-γ.
The inhibition % of each test compound was calculated by formula A1.
In this assay, the expression of IDO in KATO-III cells is induced by IFN-γ treatment, and kynurenine in the culture medium is quantified. The kynurenine concentration in a culture medium is known to increase in proportion to the enzymatic activity of intracellular IDO (for example, J. Biol. Chem., vol. 263, pp. 2041-2048 (1988)). […] The production of kynurenine is known to be inhibited by IDO inhibitors (for example, J. Clin. Invest., vol. 117, No. 5, pp. 1147-1154 ([…])), and thus it is speculated that compounds (I) also have an inhibitory effect on IDO.
For the compound `CCCS(=O)(=O)Nc1nc2ccccc2nc1OC(C1CCN(c2cc(C(=O)N(C)C)ccn2)CC1)C(F)(F)F` (centres unmarked) [Compound 1, N,N-dimethyl-2-(4-(2,2,2-trifluoro-1-(3-(propylsulfonamido)quinoxalin-2-yloxy)ethyl)piperidin-1-yl)isonicotinamide], the inhibition at 10 µM is at least 80%.

Consider `CCCS(=O)(=O)Nc1nc2ccccc2nc1OC(C1CCN(c2ncccc2C(=O)N(C)C)CC1)C(F)(F)F` (centres unmarked) [Compound 2, N,N-dimethyl-2-(4-(2,2,2-trifluoro-1-(3-(propylsulfonamido)quinoxalin-2-yloxy)ethyl)piperidin-1-yl)nicotinamide], for which the inhibition at 10 µM is at least 80%. Regarding `CCCS(=O)(=O)Nc1nc2ccccc2nc1OC(C1CCN(c2cccc(C(=O)N(C)C)n2)CC1)C(F)(F)F` (centres unmarked) [Compound 3, N,N-dimethyl-6-(4-(2,2,2-trifluoro-1-(3-(propylsulfonamido)quinoxalin-2-yloxy)ethyl)piperidin-1-yl)picolinamide], the inhibition at 10 µM is at least 80%. Under `CCCS(=O)(=O)Nc1nc2ccccc2nc1OC(C1CCN(c2ccc(C(N)=O)nc2)CC1)C(F)(F)F` (centres unmarked) [Compound 5, 5-(4-(2,2,2-trifluoro-1-(3-(propylsulfonamido)quinoxalin-2-yloxy)ethyl)piperidin-1-yl)picolinamide] stands at least 80%; under `CCCS(=O)(=O)Nc1nc2ccccc2nc1OC(C1CCN(c2cc(C#N)ccn2)CC1)C(F)(F)F` (centres unmarked) [Compound 6, N-(3-(1-(1-(4-cyanopyridin-2-yl)piperidin-4-yl)-2,2,2-trifluoroethoxy)quinoxalin-2-yl)propane-1-sulfonamide], at least 80%; under `CCCS(=O)(=O)Nc1nc2ccccc2nc1OC(C1CCN(c2cncc(C#N)c2)CC1)C(F)(F)F` (centres unmarked) [Compound 7, N-(3-(1-(1-(5-cyanopyridin-3-yl)piperidin-4-yl)-2,2,2-trifluoroethoxy)quinoxalin-2-yl)propane-1-sulfonamide], at least 80%. As to `CCCS(=O)(=O)Nc1nc2ccccc2nc1OC(C1CCN(c2ccc(C(=O)N(C)C)cn2)CC1)C(F)(F)F` (centres unmarked) [Compound 8, N,N-dimethyl-6-(4-(2,2,2-trifluoro-1-(3-(propylsulfonamido)quinoxalin-2-yloxy)ethyl)piperidin-1-yl)nicotinamide], the inhibition at 10 µM is at least 80%.

For the compound `CCCS(=O)(=O)Nc1nc2ccccc2nc1OC(C1CCN(c2ncccc2C#N)CC1)C(F)(F)F` (centres unmarked) [Compound 9, N-(3-(1-(1-(3-cyanopyridin-2-yl)piperidin-4-yl)-2,2,2-trifluoroethoxy)quinoxalin-2-yl)propane-1-sulfonamide], the inhibition at 10 µM is at least 80%. `CCCS(=O)(=O)Nc1nc2ccccc2nc1OC(C1CCN(c2ncccc2C(N)=O)CC1)C(F)(F)F` (centres unmarked) [Compound 10, 2-(4-(2,2,2-trifluoro-1-(3-(propylsulfonamido)quinoxalin-2-yloxy)ethyl)piperidin-1-yl)nicotinamide] showed an inhibition at 10 µM of at least 80%. `CCCS(=O)(=O)Nc1nc2ccccc2nc1OC(C1CCN(c2nnnn2C)CC1)C(F)(F)F` (centres unmarked) [Compound 12, N-(3-(2,2,2-trifluoro-1-(1-(1-methyl-1H-tetrazol-5-yl)piperidin-4-yl)ethoxy)quinoxalin-2-yl)propane-1-sulfonamide] yielded an inhibition at 10 µM of at least 80%. Under `CCCS(=O)(=O)Nc1nc2ccccc2nc1OC(C1CCN(c2cnccn2)CC1)C(F)(F)F` (centres unmarked) [Compound 13, N-(3-(2,2,2-trifluoro-1-(1-(pyrazin-2-yl)piperidin-4-yl)ethoxy)quinoxalin-2-yl)propane-1-sulfonamide] stands at least 80%; under `CCCS(=O)(=O)Nc1nc2ccccc2nc1OC(C1CCN(c2cncnc2)CC1)C(F)(F)F` (centres unmarked) [Compound 14, N-(3-(2,2,2-trifluoro-1-(1-(pyrimidin-5-yl)piperidin-4-yl)ethoxy)quinoxalin-2-yl)propane-1-sulfonamide], at least 80%. `CCCS(=O)(=O)Nc1nc2ccccc2nc1OC(C1CCN(c2ccc(C#N)cn2)CC1)C(F)(F)F` (centres unmarked) [Compound 15, N-(3-(1-(1-(5-cyanopyridin-2-yl)piperidin-4-yl)-2,2,2-trifluoroethoxy)quinoxalin-2-yl)propane-1-sulfonamide] displayed an inhibition at 10 µM of at least 80%.

Take `CCCS(=O)(=O)Nc1nc2ccccc2nc1OC(C1CCN(c2ccnc(C#N)c2)CC1)C(F)(F)F` (centres unmarked) [Compound 16, N-(3-(1-(1-(2-cyanopyridin-4-yl)piperidin-4-yl)-2,2,2-trifluoroethoxy)quinoxalin-2-yl)propane-1-sulfonamide]: the inhibition at 10 µM was at least 80%.

In turn, `CCCS(=O)(=O)Nc1nc2ccccc2nc1OC(C1CCN(c2ccncc2C#N)CC1)C(F)(F)F` (centres unmarked) [Compound 17, N-(3-(1-(1-(3-cyanopyridin-4-yl)piperidin-4-yl)-2,2,2-trifluoroethoxy)quinoxalin-2-yl)propane-1-sulfonamide] gave an inhibition at 10 µM of at least 80%. Under `CCCS(=O)(=O)Nc1nc2ccccc2nc1OC(C1CCN(c2nccs2)CC1)C(F)(F)F` (centres unmarked) [Compound 18, N-(3-(2,2,2-trifluoro-1-(1-(thiazol-2-yl)piperidin-4-yl)ethoxy)quinoxalin-2-yl)propane-1-sulfonamide] stands at least 80%; under `CCCS(=O)(=O)Nc1nc2ccccc2nc1OC(C1CCN(c2ccc(C(N)=O)cn2)CC1)C(F)(F)F` (centres unmarked) [Compound 19, 6-(4-(2,2,2-trifluoro-1-(3-(propylsulfonamido)quinoxalin-2-yloxy)ethyl)piperidin-1-yl)nicotinamide], at least 80%. In turn, `CCCS(=O)(=O)Nc1nc2ccccc2nc1OC(C1CCN(c2ccccn2)CC1)C(F)(F)F` (centres unmarked) [Compound 20, N-(3-(2,2,2-trifluoro-1-(1-(pyridin-2-yl)piperidin-4-yl)ethoxy)quinoxalin-2-yl)propane-1-sulfonamide] showed an inhibition at 10 µM of at least 80%. Under `CCCS(=O)(=O)Nc1nc2ccccc2nc1OC(C1CCN(c2cccnc2)CC1)C(F)(F)F` (centres unmarked) [Compound 21, N-(3-(2,2,2-trifluoro-1-(1-(pyridin-3-yl)piperidin-4-yl)ethoxy)quinoxalin-2-yl)propane-1-sulfonamide] stands at least 80%; under `COCCS(=O)(=O)Nc1nc2ccccc2nc1OC(c1ccc(-c2noc(C3CC3)n2)nc1)C(F)(F)F` (centres unmarked) [Compound 23, N-(3-(1-(6-(5-cyclopropyl-1,2,4-oxadiazol-3-yl)pyridin-3-yl)-2,2,2-trifluoroethoxy)quinoxalin-2-yl)-2-methoxyethanesulfonamide], at least 80%; under `CCCS(=O)(=O)Nc1nc2ccccc2nc1OC(c1ccc(-c2noc(COC)n2)nc1)C(F)(F)F` (centres unmarked) [Compound 26, N-(3-(2,2,2-trifluoro-1-(6-(5-(methoxymethyl)-1,2,4-oxadiazol-3-yl)pyridin-3-yl)ethoxy)quinoxalin-2-yl)propane-1-sulfonamide], at least 80%. As for `CCCS(=O)(=O)Nc1nc2ccccc2nc1O[C@H](c1cnc(C(C)=O)s1)C(F)(F)F` [Compound 32, (S)-N-(3-(1-(2-acetylthiazol-5-yl)-2,2,2-trifluoroethoxy)quinoxalin-2-yl)propane-1-sulfonamide], the inhibition at 10 µM was at least 80%. Under `CCCS(=O)(=O)Nc1nc2ccccc2nc1O[C@H](C1CCN(c2ccc(C(N)=O)nc2)CC1)C(F)(F)F` [Compound 34, (R)-5-(4-(2,2,2-trifluoro-1-(3-(propylsulfonamido)quinoxalin-2-yloxy)ethyl)piperidin-1-yl)picolinamide] stands at least 80%.

The record behind these values is patent US9067923B2, “Substituted quinoxalines” (Kyowa Hakko Kirin Co., Ltd., priority 2011, dated 2015).
